According to patent US12565501B2, “Muscarinic acetylcholine M1 receptor antagonists” (Contineum Therapeutics, Inc., priority 2019, dated 2026):

Target: T1, human M1 receptor (Homo sapiens, UniProt P11229)
T1 sequence (P11229 1-460): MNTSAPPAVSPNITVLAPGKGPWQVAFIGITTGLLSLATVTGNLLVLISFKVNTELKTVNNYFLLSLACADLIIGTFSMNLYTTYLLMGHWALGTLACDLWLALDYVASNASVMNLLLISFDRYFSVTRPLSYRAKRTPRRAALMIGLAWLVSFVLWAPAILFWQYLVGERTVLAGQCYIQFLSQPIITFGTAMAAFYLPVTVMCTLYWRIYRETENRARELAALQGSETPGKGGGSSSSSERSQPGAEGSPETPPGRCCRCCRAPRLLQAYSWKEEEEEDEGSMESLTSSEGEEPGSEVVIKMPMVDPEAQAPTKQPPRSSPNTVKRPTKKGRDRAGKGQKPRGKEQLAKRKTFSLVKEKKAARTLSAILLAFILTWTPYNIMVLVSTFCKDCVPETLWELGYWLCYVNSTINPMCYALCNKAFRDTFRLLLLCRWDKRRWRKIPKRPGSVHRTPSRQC
Assay: In vitro functional assay of muscarinic acetylcholine receptor activity (aequorin calcium flux, reversal of EC80 acetylcholine response)
Type: cell-based
Details: CHO-K1 cells stably expressing human M1 receptor with aequorin; acetylcholine at EC80; calcium flux (luminescence); read-out: M1 IC50
Description: CHO-K1 cells stably expressing human M1 receptor with aequorin (Perkin Elmer) were grown in F12 media (Gibco) containing 10% FBS (ATCC), 0.4 mg/mL geneticin (Sigma-Aldrich) and 0.25 mg/mL Zeocin (Invitrogen). Cells were grown as per the manufacturer's protocol. For compound testing, cells were grown to confluency and detached gently with Accutase (Sigma-Aldrich) followed by centrifugation for 5 min at 150× g. Cells were then re-suspended in assay buffer (i.e. DMEM/F-12 HEPES without phenol red (Invitrogen) with 0.1% BSA (Sigma-Aldrich)) at a density of 5×10^6 cells/ml. Under sterile conditions, 5 μM coelenterazine (Invitrogen) was added to the cells, mixed, then incubated at room temperature protected from light, with gentle agitation, for 4 h.
Primary compound plates were prepared in 100% DMSO in opaque 96-well plates (VWR) and serially diluted in half log increments. Secondary compound plates were prepared at 3× concentration in assay buffer. Compounds were added to white, clear bottom tissue culture treated 96-well plates (Fisher Scientific). Coelenterazine-loaded cells were then added at 5×10^5 cells/well.
Compounds and cells were incubated at room temperature for 30 min in the dark. Acetylcholine at the EC80 concentration was added and calcium flux measured using a FlexStation 3 (Molecular Devices). Sigmoidal dose-response curves were generated by measuring luminescence over 40 sec and calculating the area under the curve. Dose response curves and IC50 values were generated using Prism (GraphPad). Compounds were tested at a final concentration range of 100 μM to […] in 0.1% DMSO.

Question: With N#Cc1ccc(N2C3CCC2CN(C(=O)CCNC(CO)c2ccc(F)cc2)C3)nc1 [Example 130, 6-((3-(3-(((R)-1-(4-fluorophenyl)-2-hydroxyethyl)amino)propanoyl)-3,8-diazabicyclo[3.2.1]octan-8-yl)nicotinonitrile] as the compound, how does the IC50 read?
Answer: Its IC50 is greater than 1000 nM.

Question: How did the IC50 turn out when COc1cc(C2(CCC(=O)N3CC4CCC(C3)N4c3ccc(C#N)cn3)CCC2)ccn1 [Example 164, 6-(3-(3-(1-(2-methoxypyridin-4-yl)cyclobutyl)propanoyl)-3,8-diazabicyclo[3.2.1]octan-8-yl)nicotinonitrile] was run?
Answer: Its IC50 is less than 10 nM.

Question: With COc1cc(C(F)(F)CCC(=O)N2C[C@@H]3C[C@H]2CN3c2ccc(C#N)cn2)ccn1 [Example 154, 6-((1S,4S)-5-(4,4-difluoro-4-(2-methoxypyridin-4-yl)butanoyl)-2,5-diazabicyclo[2.2.1]heptan-2-yl)nicotinonitrile] as the compound, how does the IC50 read?
Answer: The IC50 was 1000 to 10000 nM.

Question: How did the IC50 turn out when N#Cc1ccc(N2C3CCC2CN(C(=O)CNC2(c4cc(F)cc(F)c4)CC2)C3)nc1 [Example 107, 6-(3-((1-(3,5-difluorophenyl)cyclopropyl)glycyl)-3,8-diazabicyclo[3.2.1]octan-8-yl)nicotinonitrile] was run?
Answer: Its IC50 is 10 to 100 nM.

Question: Which IC50 does the source give for COc1cncc(C(NCC(=O)N2CC3CCC(C2)N3c2ccc(C#N)cn2)C(F)F)c1 (racemic) [Example 127, 6-(3-((2,2-difluoro-1-(5-methoxypyridin-3-yl)ethyl)glycyl)-3,8-diazabicyclo[3.2.1]octan-8-yl)nicotinonitrile] here?
Answer: Its IC50 is less than 10 nM.

Question: COc1cc(C2(NCC(=O)N3CC4CCC(C3)N4c3ccc(C#N)cn3)CC2)c(F)cn1 [Example 74, 6-(3-((1-(5-fluoro-2-methoxypyridin-4-yl)cyclopropyl)glycyl)-3,8-diazabicyclo[3.2.1]octan-8-yl)nicotinonitrile] was tested. Which IC50 did it give?
Answer: Its IC50 is 10 to 100 nM.

Question: For N#Cc1ccc(N2C3CCC2CN(C(=O)CNC2(c4ccccc4Br)CC2)C3)nc1 [Example 101, 6-(3-((1-(2-bromophenyl)cyclopropyl)glycyl)-3,8-diazabicyclo[3.2.1]octan-8-yl)nicotinonitrile], which IC50 is on record?
Answer: The IC50 was 10 to 100 nM.

Question: For N#Cc1ccc(N2[C@@H]3CC[C@H]2CN(C(=O)CCNC2(c4ccccn4)CC2)C3)nc1 [Example 18, 6-(3-(3-((1-(pyridin-2-yl)cyclopropyl)amino)propanoyl)-3,8-diazabicyclo[3.2.1]octan-8-yl)nicotinonitrile], which IC50 is on record?
Answer: The IC50 was 1000 to 10000 nM.

Question: Which IC50 does the source give for N#Cc1ccc(N2C3CCC2CN(C(=O)COC2(c4cccc(F)c4F)CC2)C3)nc1 [Example 211, 6-(3-(2-(1-(2,3-difluorophenyl)cyclopropoxy)acetyl)-3,8-diazabicyclo[3.2.1]octan-8-yl)nicotinonitrile] here?
Answer: The IC50 was 10 to 100 nM.

Question: With N#Cc1ccc(N2C3CCC2CN(C(=O)COC2(c4ccccc4)CC2)C3)nc1 [Example 180, 6-(3-(2-(1-phenylcyclopropoxy)acetyl)-3,8-diazabicyclo[3.2.1]octan-8-yl)nicotinonitrile] as the compound, how does the IC50 read?
Answer: Its IC50 is 10 to 100 nM.

Question: N#Cc1ccc(N2C3CCC2CN(C(=O)COC2(c4cc(F)cc(C#N)c4)CC2)C3)nc1 [Example 292, 6-(3-(2-(1-(3-cyano-5-fluorophenyl)cyclopropoxy)acetyl)-3,8-diazabicyclo[3.2.1]octan-8-yl)nicotinonitrile] was tested. Which IC50 did it give?
Answer: Its IC50 is 100 to 1000 nM.

Question: How did the IC50 turn out when CC(SCCC(=O)N1CC2CCC(C1)N2c1ccc(C#N)cn1)c1ccccc1Br (racemic) [Example 136, 6-((3-((1-(2-bromophenyl)ethyl)thio)propanoyl)-3,8-diazabicyclo[3.2.1]octan-8-yl)nicotinonitrile] was run?
Answer: Its IC50 is 100 to 1000 nM.

Question: For COc1ccnc(C2(OCC(=O)N3CC4CCC(C3)N4c3ccc(C#N)cn3)CCC2)n1 [Example 264, 6-(3-(2-(1-(4-methoxypyrimidin-2-yl)cyclobutoxy)acetyl)-3,8-diazabicyclo[3.2.1]octan-8-yl)nicotinonitrile], which IC50 is on record?
Answer: Its IC50 is less than 10 nM.

Question: With N#Cc1ccc(N2C3CCC2CN(C(=O)CNC2(c4ccc(F)cc4F)CC2)C3)cc1 [Example 85, 4-(3-((1-(2,4-difluorophenyl)cyclopropyl)glycyl)-3,8-diazabicyclo[3.2.1]octan-8-yl)benzonitrile] as the compound, how does the IC50 read?
Answer: Its IC50 is 10 to 100 nM.

Question: For COc1ccccc1[C@H](C)NCC(=O)N1CC2CCC(C1)N2c1ccc(C#N)cn1 [Example 65, 6-(3-(((S)-1-(2-methoxyphenyl)ethyl)glycyl)-3,8-diazabicyclo[3.2.1]octan-8-yl)nicotinonitrile], which IC50 is on record?
Answer: The IC50 was less than 10 nM.

Question: Which IC50 does the source give for N#Cc1ccc(N2[C@@H]3CC[C@H]2CN(C(=O)CCNC2(c4ccc(F)c(Cl)c4)CC2)C3)nc1 [Example 35, 6-(3-(3-((1-(3-chloro-4-fluorophenyl)cyclopropyl)amino)propanoyl)-3,8-diazabicyclo[3.2.1]octan-8-yl)nicotinonitrile] here?
Answer: The IC50 was 10 to 100 nM.

Question: Which IC50 does the source give for Cc1noc(C)c1C(C)OCC(=O)N1CC2CCC(C1)N2c1ccc(C#N)cn1 (racemic) [Example 197, 6-(3-(2-(1-(3,5-dimethylisoxazol-4-yl)ethoxy)acetyl)-3,8-diazabicyclo[3.2.1]octan-8-yl)nicotinonitrile] here?
Answer: The IC50 was less than 10 nM.

Question: Which IC50 does the source give for C[C@H](COCC(=O)N1CC2CCC(C1)N2c1ccc(C#N)cn1)c1ccccc1 [Example 186, 6-(3-(2-((S)-2-phenylpropoxy)acetyl)-3,8-diazabicyclo[3.2.1]octan-8-yl)nicotinonitrile] here?
Answer: Its IC50 is 1000 to 10000 nM.

Question: COc1ccccc1C1(NCC(=O)N2CC3CCC(C2)N3c2ccc(C#N)cn2)CC1 [Example 97, 6-(3-((1-(2-methoxyphenyl)cyclopropyl)glycyl)-3,8-diazabicyclo[3.2.1]octan-8-yl)nicotinonitrile] was tested. Which IC50 did it give?
Answer: The IC50 was less than 10 nM.

Question: For “6-(3-(2-(1-(1-methyl-6-oxo-1,6-dihydropyridin-3-yl) cyclopropoxy)acetyl)-3,8-diazabicyclo[3.2.1]octan- 8-yl)nicotinonitrile [Example 301]”, which IC50 is on record?
Answer: The IC50 was 100 to 1000 nM.

Question: With N#Cc1cc(N2[C@@H]3CC[C@H]2CN(C(=O)CCNC2(c4ccc(F)c(F)c4)CC2)C3)ccn1 [Example 43, 4-(3-(3-((1-(3,4-difluorophenyl)cyclopropyl)amino)propanoyl)-3,8-diazabicyclo[3.2.1]octan-8-yl)picolinonitrile] as the compound, how does the IC50 read?
Answer: Its IC50 is 10 to 100 nM.

Question: How did the IC50 turn out when N#Cc1ccc(N2C3CCC2CN(C(=O)COC2(c4ccc(F)c(F)c4)CCOC2)C3)nc1 (racemic) [Example 269, 6-(3-(2-((3-(3,4-difluorophenyl)tetrahydrofuran-3-yl)oxy)acetyl)-3,8-diazabicyclo [3.2.1]octan-8-yl)nicotinonitrile] was run?
Answer: The IC50 was 100 to 1000 nM.

Question: For CC(NCCC(=O)N1C[C@H]2CC[C@@H](C1)N2c1ccc(C#N)cn1)c1c(F)ccc2nccn12 (mixture of isomers) [Example 53, 6-(3-(3-((1-(6-fluoroimidazo[1,2-a]pyridin-5-yl)ethyl)amino)propanoyl)-3,8-diazabicyclo[3.2.1]octan-8-yl)nicotinonitrile], which IC50 is on record?
Answer: The IC50 was 10 to 100 nM.

Question: Which IC50 does the source give for COc1cncc(C(F)(F)CCC(=O)N2CC3CCC(C2)N3c2ccc(C#N)cn2)c1 [Example 160, 6-(3-(4,4-difluoro-4-(5-methoxypyridin-3-yl)butanoyl)-3,8-diazabicyclo[3.2.1]octan-8-yl)nicotinonitrile] here?
Answer: The IC50 was less than 10 nM.

Question: CC(OCC(=O)N1CC2CCC(C1)N2c1ccc(C#N)cn1)c1ccc(C(F)(F)F)nc1 (racemic) [Example 190, 6-(3-(2-(1-(6-(trifluoromethyl)pyridin-3-yl)ethoxy)acetyl)-3,8-diazabicyclo[3.2.1]octan-8-yl)nicotinonitrile] was tested. Which IC50 did it give?
Answer: The IC50 was greater than 1000 nM.
